{"source": "patent US6417187B2", "about": "“1,2,4-triazole based compounds that can be used as insecticides or acaricides and processes” (Dow AgroSciences LLC, priority 2000, dated 2002)", "type_in_all_cases": "in vivo", "key": {"[1]": {"system": "cotton aphid (Aphis gossvpii)", "assay": "Insecticidal test for cotton aphid (squash cotyledon spray)"}, "[2]": {"system": "Brown Planthopper (Nilaparvata lugens)", "assay": "Insecticidal test for Brown Planthopper (rice seedling roots in test solution)"}, "[3]": {"system": "cabbage looper (Trichoplusia ni)", "assay": "Insecticidal test for cabbage looper (cabbage leaf-disc dip)"}, "[4]": {"system": "tobacco budworm (Heliothis virescens)", "assay": "Insecticidal test for tobacco budworm (cotton cotyledon leaf-disc dip)"}, "[5]": {"system": "Sweetpotato Whitefly (Bemisia tabacia)", "assay": "Insecticidal test for Sweetpotato Whitefly (cotton plant spray)"}, "[6]": {"system": "beet armyworm (Spodoptera exigua)", "assay": "Insecticidal test for beet armyworm (treated lepidopteran diet)"}, "[7]": {"system": "Green Leafhopper (Nephotettix cincticeps)", "assay": "Insecticidal test for Green Leafhopper (rice seedling roots in test solution)"}, "[8]": {"system": "two-spotted spider mite (Tetranychus urticae)", "assay": "Insecticidal test for two-spotted spider mite, ovicide method", "details": "2.5 ppm (table footnote), ovicide method on cotton leaf discs, 6 days"}, "[9]": {"details": "50 ppm spray on infested squash cotyledons, 3 days, population reduction versus untreated"}, "[10]": {"details": "10 ppm test solution, rice seedling roots, 3rd instar nymphs, mortality at 6 days"}, "[11]": {"details": "400 ppm, cabbage leaf-dip, 2nd instar larvae, 5 days"}, "[12]": {"details": "400 ppm, cotton cotyledon leaf-dip, 2nd instar larvae, 5 days"}, "[13]": {"details": "200 ppm spray on cotton plants, 13 days, reduction of large nymphs"}, "[14]": {"details": "400 ppm, treated diet, second-instar larvae, 5 days"}}}
{"smiles": "CCCc1ccc(C#Cc2sc(-c3nc(-c4c(F)cccc4Cl)nn3C)c(Cl)c2Cl)cc1", "note": "[Compound 14]", "values": [{"measurement": "CA: activity at 50 ppm against cotton aphid (% Control rating)", "setting": "[1]; [9]", "result": "A (90-100)"}, {"measurement": "BPH: activity at 10 ppm against brown planthopper (% Control rating)", "setting": "[2]; [10]", "result": "F (less than 50)"}, {"measurement": "CL: activity at 400 ppm against cabbage looper (% Control rating)", "setting": "[3]; [11]", "result": "A (90-100)"}, {"measurement": "TBW: activity at 400 ppm against tobacco budworm (% Control rating)", "setting": "[4]; [12]", "result": "A (90-100)"}, {"measurement": "WF: activity at 200 ppm against whitefly (% Control rating)", "setting": "[5]; [13]", "result": "F (less than 50)"}, {"measurement": "BAW: activity at 400 ppm against beet armyworm (% Control rating)", "setting": "[6]; [14]", "result": "A (90-100)"}]}
{"smiles": "COc1ccc(C#Cc2sc(-c3nc(-c4c(Cl)cncc4Cl)nn3C)c(Cl)c2Cl)cc1", "note": "[Compound 87]", "values": [{"measurement": "CL: activity at 400 ppm against cabbage looper (% Control rating)", "setting": "[3]; [11]", "result": "F (less than 50)"}, {"measurement": "TBW: activity at 400 ppm against tobacco budworm (% Control rating)", "setting": "[4]; [12]", "result": "F (less than 50)"}, {"measurement": "BAW: activity at 400 ppm against beet armyworm (% Control rating)", "setting": "[6]; [14]", "result": "F (less than 50)"}]}
{"smiles": "Cn1nc(-c2c(F)cccc2Cl)nc1-c1sc(C#Cc2ccc(F)cc2)c(Cl)c1Cl", "note": "[Compound 12]", "values": [{"measurement": "CA: activity at 50 ppm against cotton aphid (% Control rating)", "setting": "[1]; [9]", "result": "C (70-79)"}, {"measurement": "BPH: activity at 10 ppm against brown planthopper (% Control rating)", "setting": "[2]; [10]", "result": "F (less than 50)"}, {"measurement": "GLH: activity at 10 ppm against green leafbopper (% Control rating)", "setting": "[7]; [10]", "result": "F (less than 50)"}, {"measurement": "CL: activity at 400 ppm against cabbage looper (% Control rating)", "setting": "[3]; [11]", "result": "A (90-100)"}, {"measurement": "WF: activity at 200 ppm against whitefly (% Control rating)", "setting": "[5]; [13]", "result": "F (less than 50)"}, {"measurement": "BAW: activity at 400 ppm against beet armyworm (% Control rating)", "setting": "[6]; [14]", "result": "A (90-100)"}]}
{"smiles": "CCCCCCCc1ccc(C#Cc2sc(-c3nc(-c4c(F)cccc4Cl)nn3C)c(Cl)c2Cl)cc1", "note": "[Compound 55]", "values": [{"measurement": "CA: activity at 50 ppm against cotton aphid (% Control rating)", "setting": "[1]; in vivo", "result": "F (key: A: 90-100; B: 80-89; C: 70-79; D: 60-69; E: 50-59; F: less than 50; G: inactive)"}, {"measurement": "BPH: activity at 10 ppm against brown planthopper (% Control rating)", "setting": "[2]; in vivo", "result": "F (key: A: 90-100; B: 80-89; C: 70-79; D: 60-69; E: 50-59; F: less than 50; G: inactive)"}, {"measurement": "GLH: activity at 10 ppm against green leafbopper (% Control rating)", "setting": "[7]; in vivo", "result": "F (key: A: 90-100; B: 80-89; C: 70-79; D: 60-69; E: 50-59; F: less than 50; G: inactive)"}, {"measurement": "CL: activity at 400 ppm against cabbage looper (% Control rating)", "setting": "[3]; in vivo", "result": "A (key: A: 90-100; B: 80-89; C: 70-79; D: 60-69; E: 50-59; F: less than 50; G: inactive)"}, {"measurement": "TBW: activity at 400 ppm against tobacco budworm (% Control rating)", "setting": "[4]; in vivo", "result": "D (key: A: 90-100; B: 80-89; C: 70-79; D: 60-69; E: 50-59; F: less than 50; G: inactive)"}, {"measurement": "WF: activity at 200 ppm against whitefly (% Control rating)", "setting": "[5]; in vivo", "result": "F (key: A: 90-100; B: 80-89; C: 70-79; D: 60-69; E: 50-59; F: less than 50; G: inactive)"}, {"measurement": "BAW: activity at 400 ppm against beet armyworm (% Control rating)", "setting": "[6]; in vivo", "result": "A (key: A: 90-100; B: 80-89; C: 70-79; D: 60-69; E: 50-59; F: less than 50; G: inactive)"}]}
{"smiles": "CCCCC#Cc1cncc(-c2nc(-c3c(Cl)cncc3Cl)nn2C)c1", "note": "[Compound 86]", "values": [{"measurement": "CA: activity at 50 ppm against cotton aphid (% Control rating)", "setting": "[1]; [9]", "result": "E (50-59)"}, {"measurement": "BPH: activity at 10 ppm against brown planthopper (% Control rating)", "setting": "[2]; [10]", "result": "F (less than 50)"}, {"measurement": "GLH: activity at 10 ppm against green leafbopper (% Control rating)", "setting": "[7]; [10]", "result": "F (less than 50)"}, {"measurement": "WF: activity at 200 ppm against whitefly (% Control rating)", "setting": "[5]; [13]", "result": "F (less than 50)"}, {"measurement": "SM: activity at 2.5 ppm against two-spotted spider mite (% Control rating)", "setting": "[8]", "result": "C (70-79)"}]}
{"smiles": "CCCCCCCOc1ccc(C#Cc2sc(-c3nc(-c4c(F)cccc4Cl)nn3C)c(Cl)c2Cl)cc1", "note": "[Compound 56]", "values": [{"measurement": "CA: activity at 50 ppm against cotton aphid (% Control rating)", "setting": "[1]; [9]", "result": "E (50-59)"}, {"measurement": "BPH: activity at 10 ppm against brown planthopper (% Control rating)", "setting": "[2]; [10]", "result": "F (less than 50)"}, {"measurement": "CL: activity at 400 ppm against cabbage looper (% Control rating)", "setting": "[3]; [11]", "result": "A (90-100)"}, {"measurement": "TBW: activity at 400 ppm against tobacco budworm (% Control rating)", "setting": "[4]; [12]", "result": "A (90-100)"}, {"measurement": "WF: activity at 200 ppm against whitefly (% Control rating)", "setting": "[5]; [13]", "result": "F (less than 50)"}, {"measurement": "BAW: activity at 400 ppm against beet armyworm (% Control rating)", "setting": "[6]; [14]", "result": "A (90-100)"}]}
{"smiles": "CCOc1ccc(C#Cc2sc(-c3nc(-c4c(F)cccc4Cl)nn3C)c(Cl)c2Cl)cc1C(F)(F)F", "note": "[Compound 49]", "values": [{"measurement": "CA: activity at 50 ppm against cotton aphid (% Control rating)", "setting": "[1]; [9]", "result": "F (less than 50)"}, {"measurement": "BPH: activity at 10 ppm against brown planthopper (% Control rating)", "setting": "[2]; [10]", "result": "F (less than 50)"}, {"measurement": "CL: activity at 400 ppm against cabbage looper (% Control rating)", "setting": "[3]; [11]", "result": "A (90-100)"}, {"measurement": "TBW: activity at 400 ppm against tobacco budworm (% Control rating)", "setting": "[4]; [12]", "result": "D (60-69)"}, {"measurement": "WF: activity at 200 ppm against whitefly (% Control rating)", "setting": "[5]; [13]", "result": "F (less than 50)"}, {"measurement": "BAW: activity at 400 ppm against beet armyworm (% Control rating)", "setting": "[6]; [14]", "result": "A (90-100)"}]}
{"smiles": "CCCOc1ccc(C#Cc2sc(-c3nc(-c4c(F)cccc4Cl)nn3C)c(Cl)c2Cl)cc1", "note": "[Compound 15]", "values": [{"measurement": "CA: activity at 50 ppm against cotton aphid (% Control rating)", "setting": "[1]; [9]", "result": "D (60-69)"}, {"measurement": "BPH: activity at 10 ppm against brown planthopper (% Control rating)", "setting": "[2]; [10]", "result": "F (less than 50)"}, {"measurement": "GLH: activity at 10 ppm against green leafbopper (% Control rating)", "setting": "[7]; [10]", "result": "F (less than 50)"}, {"measurement": "CL: activity at 400 ppm against cabbage looper (% Control rating)", "setting": "[3]; [11]", "result": "D (60-69)"}, {"measurement": "TBW: activity at 400 ppm against tobacco budworm (% Control rating)", "setting": "[4]; [12]", "result": "F (less than 50)"}, {"measurement": "WF: activity at 200 ppm against whitefly (% Control rating)", "setting": "[5]; [13]", "result": "F (less than 50)"}, {"measurement": "BAW: activity at 400 ppm against beet armyworm (% Control rating)", "setting": "[6]; [14]", "result": "D (60-69)"}]}
{"smiles": "Cn1nc(-c2c(F)cccc2Cl)nc1-c1sc(C#Cc2ccc(F)c(C(F)(F)F)c2)c(Cl)c1Cl", "note": "[Compound 47]", "values": [{"measurement": "CA: activity at 50 ppm against cotton aphid (% Control rating)", "setting": "[1]; [9]", "result": "C (70-79)"}, {"measurement": "BPH: activity at 10 ppm against brown planthopper (% Control rating)", "setting": "[2]; [10]", "result": "F (less than 50)"}, {"measurement": "CL: activity at 400 ppm against cabbage looper (% Control rating)", "setting": "[3]; [11]", "result": "A (90-100)"}, {"measurement": "TBW: activity at 400 ppm against tobacco budworm (% Control rating)", "setting": "[4]; [12]", "result": "A (90-100)"}, {"measurement": "BAW: activity at 400 ppm against beet armyworm (% Control rating)", "setting": "[6]; [14]", "result": "A (90-100)"}]}
